One experiment concerns the target T1, Shp2 (Homo sapiens (Human), UniProt Q06124). Put plainly: in vitro phosphotyrosine phosphatase activity (DiFMUP) assay. The format is biochemical. As to conditions: mean ± spread over n tests. The protocol:
All reagents were purchased from commercial suppliers and used without further purification. Melting points were determined using a Barnstead international melting point apparatus and remain uncorrected. ^1H NMR spectra were recorded on a Varian Mercury 400 MHz spectrometer with CDCl3 or DMSO-d6 as the solvent. ^13C NMR spectra are recorded at 100 MHz. All coupling constants are measured in Hertz (Hz) and the chemical shifts (δH and δC) are quoted in parts per million (ppm) relative to TMS (δ0), which was used as the internal standard. High resolution mass spectroscopy was carried out on an Agilent 6210 LC/MS (ESI-TOF). Microwave reactions were performed in CEM 908005 model and Biotage initiator 8 machines. HPLC analysis was performed using a JASCO HPLC system equipped with a PU-2089 Plus quaternary gradient pump and a UV-2075 Plus UV-VIS detector, using an Alitech Kromasil C-18 column (150×4.6 mm, 5 μm). Thin layer chromatography was performed using silica gel 60 F254 plates (Fisher), with observation under UV when necessary. Anhydrous solvents (acetonitrile, dimethyl formamide, ethanol, isopropanol, methanol and tetrahydrofuran) were used as purchased from Aldrich. HPLC grade solvents (methanol, acetonitrile and water) were purchased from Burdick and Jackson for HPLC and mass analysis.
Target sequence in this assay (Q06124 whole entry): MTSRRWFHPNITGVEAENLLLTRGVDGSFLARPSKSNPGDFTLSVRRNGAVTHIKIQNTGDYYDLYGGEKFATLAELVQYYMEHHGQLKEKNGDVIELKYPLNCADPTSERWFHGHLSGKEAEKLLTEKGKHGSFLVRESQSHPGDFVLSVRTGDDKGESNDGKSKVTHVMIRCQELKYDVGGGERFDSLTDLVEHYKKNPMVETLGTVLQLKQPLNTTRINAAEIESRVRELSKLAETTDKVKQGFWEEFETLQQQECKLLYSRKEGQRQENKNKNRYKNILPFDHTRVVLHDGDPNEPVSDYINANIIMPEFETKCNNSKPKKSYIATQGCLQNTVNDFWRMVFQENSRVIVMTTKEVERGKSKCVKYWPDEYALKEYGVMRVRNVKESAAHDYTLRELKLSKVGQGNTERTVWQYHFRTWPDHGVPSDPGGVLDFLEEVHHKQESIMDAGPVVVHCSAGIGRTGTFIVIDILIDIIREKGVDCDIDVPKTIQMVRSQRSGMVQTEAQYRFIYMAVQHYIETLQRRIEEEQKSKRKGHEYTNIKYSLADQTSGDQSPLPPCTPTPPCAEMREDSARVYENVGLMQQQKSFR
Chain of Shp1 (P29350 whole entry): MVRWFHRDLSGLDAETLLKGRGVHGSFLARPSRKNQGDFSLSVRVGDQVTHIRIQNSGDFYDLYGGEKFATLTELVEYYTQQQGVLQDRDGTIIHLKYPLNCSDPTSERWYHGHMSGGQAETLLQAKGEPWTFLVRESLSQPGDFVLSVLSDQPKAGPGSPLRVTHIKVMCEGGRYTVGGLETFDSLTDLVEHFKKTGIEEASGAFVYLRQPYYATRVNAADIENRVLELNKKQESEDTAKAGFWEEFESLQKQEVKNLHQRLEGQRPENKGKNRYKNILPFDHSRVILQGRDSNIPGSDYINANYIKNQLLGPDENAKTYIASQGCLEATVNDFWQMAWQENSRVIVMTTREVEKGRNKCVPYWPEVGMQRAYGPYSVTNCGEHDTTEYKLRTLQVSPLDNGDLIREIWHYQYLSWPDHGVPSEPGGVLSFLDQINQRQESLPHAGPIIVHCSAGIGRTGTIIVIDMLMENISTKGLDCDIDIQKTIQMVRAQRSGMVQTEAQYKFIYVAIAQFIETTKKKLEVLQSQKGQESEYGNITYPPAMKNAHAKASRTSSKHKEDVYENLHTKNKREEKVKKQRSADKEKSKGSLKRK
On to `O=C(O)c1ccccc1NC(=O)N1CCc2cc(S(=O)(=O)N3CCN(c4cccc(Cl)c4)CC3)ccc21` [JHE-02-020A, 2-(5-(4-(3-Chlorophenyl)piperazin-1-ylsulfonyl)indoline-1-carboxamido)benzoic acid], for which the IC50 (as a rule, the concentration needed to halve the response being measured) stood at 8.3 ± 5.6 µM.
The molecule `O=C(O)c1cccc(NC(=O)N2CCc3cc(S(=O)(=O)N4CCN(c5cccc(Cl)c5)CC4)ccc32)c1` [JHE-02-020B, 3-(5-(4-(3-Chlorophenyl)piperazin-1-ylsulfonyl)indoline-1-carboxamido)benzoic acid] returned an IC50 of 3 ± 0.8 µM.
Same read-out and setting: with `CCC(C)C(NC(=O)N1CCc2cc(S(=O)(=O)N3CCN(c4cccc(Cl)c4)CC3)ccc21)C(=O)OC` (stereo not shown) [JHE-02-029A, Methyl 2-(5-(4-(3-chlorophenyl)piperazin-1-ylsulfonyl)indoline-1-carboxamido)-3-methylpentanoate] the figure was 12.7 ± 0.7 µM.
On the same count and under the same terms, the figure for `O=C(Nc1cccc(Cl)c1)N1CCc2cc(S(=O)(=O)N3CCN(c4cccc(Cl)c4)CC3)ccc21` [JHE-02-032A, N-(3-Chlorophenyl)-5-(4-(3-chlorophenyl)piperazin-1-ylsulfonyl)indoline-1-carboxamide] is 8.3 ± 3.4 µM; for `COc1cccc(NC(=O)N2CCc3cc(S(=O)(=O)N4CCN(c5cccc(Cl)c5)CC4)ccc32)c1` [JHE-02-032B, 5-(4-(3-Chlorophenyl)piperazin-1-ylsulfonyl)-N-(3-methoxyphenyl)indoline-1-carboxamide] it is 9.9 ± 3.5 µM; for `CCCC(=O)N1CCc2cc(S(=O)(=O)N3CCN(c4cccc(Cl)c4)CC3)ccc21` [JHE-02-033A, 1-(5-(4-(3-Chlorophenyl)piperazin-1-ylsulfonyl)indolin-1-yl)butan-1-one] it is 7.8 ± 2.1 µM.
With `CC(C)CC(=O)N1CCc2cc(S(=O)(=O)N3CCN(c4cccc(Cl)c4)CC3)ccc21` [JHE-02-033B, 1-(5-(4-(3-Chlorophenyl)piperazin-1-ylsulfonyl)indolin-1-yl)-3-methylbutan-1-one], the concentration for half-maximal inhibition (IC50) is 20.7 ± 10.8 µM.
`COc1cccc(C(=O)N2CCc3cc(S(=O)(=O)N4CCN(c5cccc(Cl)c5)CC4)ccc32)c1` [JHE-02-035A, (5-(4-(3-chlorophenyl)piperazin-1-ylsulfonyl)indolin-1-yl)(3-methoxyphenyl)methanone] showed an IC50 of 8.1 ± 0.8 µM.
Same read-out and setting: with `CCC(C)C(NC(=O)N1CCc2cc(S(=O)(=O)N3CCN(c4cccc(Cl)c4)CC3)ccc21)C(=O)O` (stereo not shown) [JHE-02-038, 2-(5-(4-(3-Chlorophenyl)piperazin-1-ylsulfonyl)indoline-1-carboxamido)-3-methylpentanoic acid] the figure was 15.5 ± 7.5 µM.
On to `O=C(O)CC[C@H](NC(=O)N1CCc2cc(S(=O)(=O)N3CCN(c4cccc(Cl)c4)CC3)ccc21)C(=O)O` [JHE-02-052, (S)-2-(5-(4-(3-Chlorophenyl)piperazin-1-ylsulfonyl)indoline-1-carboxamido)pentanedioic acid], for which the IC50 is 37.6 ± 13.8 µM.
On to `O=C(Cc1ccc(Cl)cc1)N1CCc2cc(S(=O)(=O)N3CCN(c4cccc(Cl)c4)CC3)ccc21` [JHE-02-063B, 2-(4-Chlorophenyl)-1-(5-(4-(3-chlorophenyl)piperazin-1-ylsulfonyl)indolin-1-yl)ethanone], for which the IC50 turned out to be 8 ± 1.9 µM.
As for `O=C(Nc1ccc(Cl)cc1)N1CCc2cc(S(=O)(=O)N3CCN(c4cccc(Cl)c4)CC3)ccc21` [JHE-02-065A, N-(4-Chlorophenyl)-5-(4-(3-chlorophenyl)piperazin-1-ylsulfonyl)indoline-1-carboxamide], the half-inhibitory concentration (IC50) came out at 19.1 ± 5.1 µM.
The molecule `O=C(Nc1ccccc1Cl)N1CCc2cc(S(=O)(=O)N3CCN(c4cccc(Cl)c4)CC3)ccc21` [JHE-02-065B, N-(2-Chlorophenyl)-5-(4-(3-chlorophenyl)piperazin-1-ylsulfonyl)indoline-1-carboxamide] came in with an IC50 of 3.2 ± 0.5 µM.
In turn, `O=C(O)C(O)CC(=O)N1CCc2cc(S(=O)(=O)N3CCN(c4cccc(Cl)c4)CC3)ccc21` (stereo not shown) [JHE-02-067] yielded a half-maximal inhibitory concentration (IC50) of 1.3 ± 0.5 µM.
On the same count and under the same terms, with `O=C(Nc1ccc(Cl)c(Cl)c1)N1CCc2cc(S(=O)(=O)N3CCN(c4cccc(Cl)c4)CC3)ccc21` [JHE-02-068A, 5-(4-(3-Chlorophenyl)piperazin-1-ylsulfonyl)-N-(3,4-dichlorophenyl)indoline-1-carboxamide] the figure was 5.7 ± 2.5 µM; with `CC(C)c1ccc(NC(=O)N2CCc3cc(S(=O)(=O)N4CCN(c5cccc(Cl)c5)CC4)ccc32)cc1` [JHE-02-068B, 5-(4-(3-Chlorophenyl)piperazin-1-ylsulfonyl)-N-(4-isopropylphenyl)indoline-1-carboxamide], 4.1 ± 1 µM.
Still for that read-out and setting: with `CC1Cc2cc(S(=O)(=O)N3CCN(c4cccc(Cl)c4)CC3)ccc2N1C(=O)C(F)(F)F` (stereo not shown) [JHE-02-117, 1-(5-(4-(3-chlorophenyl)piperazin-1-ylsulfonyl)-2-methylindolin-1-yl)-2,2,2-trifluoroethanone] the figure was 47 ± 17.7 µM; with `CC1Cc2cc(S(=O)(=O)N3CCN(c4cccc(Cl)c4)CC3)ccc2N1C(=O)CCC(=O)O` (stereo not shown) [JHE-02-119, 4-(5-(4-(3-Chlorophenyl)piperazin-1-ylsulfonyl)-2-methylindolin-1-yl)-4-oxobutanoic acid], 2.5 ± 0.5 µM; with `O=C(O)CCC(=O)N1CCc2cc(S(=O)(=O)N3CCN(c4ccc(F)cc4)CC3)ccc21` [XW2-011B, 4-(5-(4-(4-Fluorophenyl)piperazin-1-ylsulfonyl)indolin-1-yl)-4-oxobutanoic acid], 31.9 ± 10 µM.
In turn, `O=C(O)CCC(=O)N1CCc2cc(S(=O)(=O)N3CCN(c4cccc(C(F)(F)F)c4)CC3)ccc21` [XW2-031B, 4-oxo-4-(5-(4-(3-(trifluoromethyl)phenyl)piperazin-1-ylsulfonyl)indolin-1-yl)butanoic acid] showed a half-maximal inhibitory concentration (IC50) of 11.3 ± 3.1 µM.
Still for that read-out and setting: with `O=C(O)CCC(=O)N1CCc2cc(S(=O)(=O)N3CCN(c4ccc(Cl)c(Cl)c4)CC3)ccc21` [XW2-036, 4-(5-(4-(3,4-Dichlorophenyl)piperazin-1-ylsulfonyl)indolin-1-yl)-4-oxobutanoic acid] the figure was 4.6 ± 2.4 µM.
As for `O=C(O)CCC(=O)N1CCc2cc(S(=O)(=O)N3CCN(c4ccccc4)CC3)ccc21` [XW2-038A, 4-oxo-4-(5-(4-Phenylpiperazin-1-ylsulfonyl)indolin-1-yl)butanoic acid], inhibition was half-maximal at 14.8 ± 7.3 µM (IC50).
`O=C(O)CCC(=O)N1CCc2cc(S(=O)(=O)N3CCN(c4ccccc4F)CC3)ccc21` [XW2-038D, 4-(5-(4-(2-Fluorophenyl)piperazin-1-ylsulfonyl)indolin-1-yl)-4-oxobutanoic acid] displayed a half-maximal inhibitory concentration (IC50) of 34.6 ± 12.6 µM.
Molecule `COc1ccc(N2CCN(S(=O)(=O)c3ccc4c(c3)CCN4C(=O)CCC(=O)O)CC2)cc1` [XW2-038E, 4-(5-(4-(4-Methoxyphenyl)piperazin-1-ylsulfonyl)indolin-1-yl)-4-oxobutanoic acid] registered an IC50 of 9 ± 5.9 µM.
In turn, `COc1cccc(N2CCN(S(=O)(=O)c3ccc4c(c3)CCN4C(=O)CCC(=O)O)CC2)c1` [XW2-038F, 4-(5-(4-(3-Methoxyphenyl)piperazin-1-ylsulfonyl)indolin-1-yl)-4-oxobutanoic acid] registered a half-inhibitory concentration (IC50) of 4.7 ± 4.4 µM.
`O=C(O)CCC(=O)N1CCc2cc(S(=O)(=O)N3CCN(c4cccc(Cl)c4Cl)CC3)ccc21` [XW2-038G, 4-(5-(4-(2,3-Dichlorophenyl)piperazin-1-ylsulfonyl)indolin-1-yl)-4-oxobutanoic acid] showed an IC50 of 144 ± 89.5 µM.
In turn, `O=C(O)CCC(=O)N1CCc2cc(S(=O)(=O)N3CCN(c4cccc(Cl)c4)CC3)ccc21` [XW2-038H, 4-(5-(4-(3-Chlorophenyl)piperazin-1-ylsulfonyl)indolin-1-yl)-4-oxobutanoic acid] returned an IC50 of 0.7 ± 0.3 µM.
As for `O=C(O)CCC(=O)N1CCc2cc(S(=O)(=O)N3CCN(c4cc(C(F)(F)F)cc(C(F)(F)F)c4)CC3)ccc21` [XW2-119, 4-(5-(4-(3,5-Bis(trifluoromethyl)phenyl)piperazin-1-ylsulfonyl)indolin-1-yl)-4-oxobutanoic acid], half-maximal inhibition (IC50) was put at 9.1 ± 1.6 µM.
Take `O=C(O)CCC(=O)N1CCc2cc(S(=O)(=O)N3CCN(c4cccc(F)c4)CC3)ccc21` [XW2-124A, 4-(5-(4-(3-Fluorophenyl)piperazin-1-ylsulfonyl)indolin-1-yl)-4-oxobutanoic acid]: the half-maximal inhibitory concentration (IC50) came out at 13.2 ± 3.6 µM.
Same read-out and setting: with `O=C(O)CCC(=O)N1CCc2cc(S(=O)(=O)N3CCN(c4cc(Cl)cc(Cl)c4)CC3)ccc21` [XW2-124B, 4-(5-(4-(3,5-Dichlorophenyl)piperazin-1-ylsulfonyl)indolin-1-yl)-4-oxobutanoic acid] the figure was 4.5 ± 1.2 µM; with `Cc1ccc(Cl)cc1N1CCN(S(=O)(=O)c2ccc3c(c2)CCN3C(=O)CCC(=O)O)CC1` [XW2-125B, 4-(5-(4-(5-Chloro-2-methylphenyl)piperazin-1-ylsulfonyl)indolin-1-yl)-4-oxobutanoic acid], 1.5 µM.
With `Cc1ccc(N2CCN(S(=O)(=O)c3ccc4c(c3)CCN4C(=O)CCC(=O)O)CC2)cc1Cl` [XW3-006, 4-(5-(4-(3-Chloro-4-methylphenyl)piperazin-1-ylsulfonyl)indolin-1-yl)-4-oxobutanoic acid], the IC50 was 16.6 ± 3.6 µM.

In the next experiment the target is T1, Shp2.
Experiment: not given
As to conditions: background statement; cited from earlier work.
Target sequence in this assay (Q06124 whole entry, species assumed): as the sequence (Q06124 whole entry) above
`CCOc1ccc(NC(=O)CN2C(=O)/C(=C3\SC(=S)C(CCS(=O)(=O)O)C3=O)c3ccccc32)cc1` (stereo not shown) [CDL 4340-0580]: the “inhibition of Shp2” value is given as “ability to inhibit Shp2”.

The next experiment has as its target Shp1 (Homo sapiens (Human), UniProt P29350).
Experiment: not given
As to conditions: background statement, non-selective; cited from earlier work.
As to `CCOc1ccc(NC(=O)CN2C(=O)/C(=C3\SC(=S)C(CCS(=O)(=O)O)C3=O)c3ccccc32)cc1` (stereo not shown) [CDL 4340-0580], the “inhibition of Shp1” value is listed as “also inhibit tumor suppressor Shp1”.
